Drawing on patent US12172992B2, “Pyrimidines for degrading Bruton's tyrosine kinase” (AbbVie Inc., priority 2022, dated 2024), this text covers Dmax for one compound.

The target of the experiment is BTK protein in human whole blood (Homo sapiens (Human), UniProt Q06187). Briefly: Btk protein in human whole blood MSD ELISA based assay (BTK degradation). It counts as cell-based. The settings on record: 6 hours, maximum BTK degradation compared to DMSO only treated samples, read-out: hWB BTK dMax (%).
BTK protein in human whole blood, sequence (Q06187 whole entry): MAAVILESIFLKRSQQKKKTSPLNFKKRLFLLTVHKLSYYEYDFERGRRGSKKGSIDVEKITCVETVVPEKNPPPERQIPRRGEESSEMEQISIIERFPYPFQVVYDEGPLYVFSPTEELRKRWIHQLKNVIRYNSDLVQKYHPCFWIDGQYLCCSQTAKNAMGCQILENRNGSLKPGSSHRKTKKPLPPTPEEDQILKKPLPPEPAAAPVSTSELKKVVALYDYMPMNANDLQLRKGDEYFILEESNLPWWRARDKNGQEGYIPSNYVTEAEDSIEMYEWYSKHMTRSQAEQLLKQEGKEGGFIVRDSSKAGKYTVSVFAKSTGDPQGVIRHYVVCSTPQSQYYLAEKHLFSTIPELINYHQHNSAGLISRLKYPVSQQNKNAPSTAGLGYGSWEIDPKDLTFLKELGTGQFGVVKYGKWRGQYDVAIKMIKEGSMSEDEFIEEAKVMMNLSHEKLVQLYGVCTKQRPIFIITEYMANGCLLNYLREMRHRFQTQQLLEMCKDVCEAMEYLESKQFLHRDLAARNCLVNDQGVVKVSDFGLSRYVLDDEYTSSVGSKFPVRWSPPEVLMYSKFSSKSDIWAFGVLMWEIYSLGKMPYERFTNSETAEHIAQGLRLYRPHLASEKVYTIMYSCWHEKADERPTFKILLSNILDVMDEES

For the compound `Cc1cc(-c2cc(Nc3ccc(N4CCN(CCc5ccc(N6CCC(=O)NC6=O)cc5)C[C@@H]4C)cn3)ncn2)ccc1[C@@H](C)NC(=O)c1nc(C(C)(C)C)no1` [Example 1, 3-tert-butyl-N-[(1R)-1-{4-[6-({5-[(2S)-4-{2-[4-(2,4-dioxo-1,3-diazinan-1-yl)phenyl]ethyl}-2-methylpiperazin-1-yl]pyridin-2-yl}amino)pyrimidin-4-yl]-2-methylphenyl}ethyl]-1,2,4-oxadiazole-5-carboxamide], the Dmax was determined as 100%.
